Each structure is given as a SMILES string.

The target of this test is T1, human TrkA receptor (Homo sapiens, UniProt P04629).
T1 construct: host or cells: U2OS cells (PathHunter cell line)
T1 sequence (P04629 33-796): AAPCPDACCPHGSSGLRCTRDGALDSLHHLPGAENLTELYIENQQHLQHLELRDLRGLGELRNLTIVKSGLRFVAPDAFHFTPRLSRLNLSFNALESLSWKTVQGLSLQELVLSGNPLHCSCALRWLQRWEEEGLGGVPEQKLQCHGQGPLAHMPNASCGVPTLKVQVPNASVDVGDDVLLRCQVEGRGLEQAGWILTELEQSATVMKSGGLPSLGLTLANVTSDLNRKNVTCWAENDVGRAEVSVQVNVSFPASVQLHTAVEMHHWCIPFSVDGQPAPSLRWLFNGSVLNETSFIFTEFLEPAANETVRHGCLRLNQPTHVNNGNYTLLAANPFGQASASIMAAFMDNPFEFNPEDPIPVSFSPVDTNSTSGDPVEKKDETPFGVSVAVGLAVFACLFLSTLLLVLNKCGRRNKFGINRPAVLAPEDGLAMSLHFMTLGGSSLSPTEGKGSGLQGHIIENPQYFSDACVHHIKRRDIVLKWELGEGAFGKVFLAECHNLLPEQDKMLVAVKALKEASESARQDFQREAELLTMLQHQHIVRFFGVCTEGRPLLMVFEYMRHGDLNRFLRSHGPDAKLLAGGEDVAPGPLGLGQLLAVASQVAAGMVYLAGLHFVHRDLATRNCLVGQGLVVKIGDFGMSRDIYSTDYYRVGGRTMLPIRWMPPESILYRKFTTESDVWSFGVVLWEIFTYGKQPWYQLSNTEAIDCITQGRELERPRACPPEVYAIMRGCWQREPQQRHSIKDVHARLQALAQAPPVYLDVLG
Put plainly: DiscoverX PathHunter TrkA functional assay (NGF-stimulated U2OS cells). The test is classed as cell-based. The note with it: U2OS cells expressing human TrkA-PK, Shc1-EA and p75NTR; compound 1 h, then NGF at ~80% of maximal response for 3 h; luminescence.
For the molecule `CNC(=O)c1ccn2c(NC(=O)c3ccc(C(F)(F)F)c(-c4ccn(C)n4)c3)c(-c3ccccc3)nc2c1` [Compound 25, N-methyl-3-({[3-(1-methyl-1H-pyrazol-3-yl)-4-(trifluoromethyl)phenyl]carbonyl}amino)-2-phenylimidazo[1,2-a]pyridine-7-carboxamide], the half-maximal inhibitory concentration (IC50) (as a rule, the point on the concentration scale where inhibition reaches its midpoint) came out at 1.4 nM.

Consider `Cn1ccc(-c2cc(C(=O)Nc3c(-c4ccccc4)nn4cc(C#N)ccc34)c(F)cc2C(F)(F)F)n1` [Compound 111, N-(6-cyano-2-phenylpyrazolo[1,5-a]pyridin-3-yl)-2-fluoro-5-(1-methyl-1H-pyrazol-3-yl)-4-(trifluoromethyl) benzamide], for which half-maximal inhibition (IC50) required 1000 nM.

In turn, `Cn1ccc(-c2cc(C(=O)Nc3c(-c4ccccc4)nc4ccccn34)c(O)cc2C(F)(F)F)n1` [Compound 32, 2-hydroxy-5-(1-methyl-1H-pyrazol-3-yl)-N-(2-phenylimidazo[1,2-a]pyridin-3-yl)-4-(trifluoromethyl) benzamide] displayed a concentration for half-maximal inhibition (IC50) of 477 nM.

The molecule `CC(O)c1ccn2c(NC(=O)c3cc(-c4ccn(C)n4)c(C(F)(F)F)cc3F)c(-c3ccccc3)nc2c1` (single isomer, unassigned) [Compound 54, (R or S)-2-fluoro-N-[7-(1-hydroxyethyl)-2-phenylimidazo[1,2-a]pyridin-3-yl]-5-(1-methyl-1H-pyrazol-3-yl)-4-(trifluoromethyl) benzamide] yielded an IC50 of 0.4 nM.

For `CC(O)c1ccn2nc(-c3ccccc3)c(NC(=O)c3ccc(C(F)(F)F)c(-c4ccn(C)n4)c3)c2c1` (single isomer, unassigned) [Compound 98, (R or S)-N-[5-(1-hydroxyethyl)-2-phenylpyrazolo[1,5-a]pyridin-3-yl]-3-(1-methyl-1H-pyrazol-3-yl)-4-(trifluoromethyl) benzamide], the 50% inhibitory concentration (IC50) was 3.3 nM.

For `Cn1ccc(-c2cc(C(=O)Nc3c(-c4ccccc4)nc4cc(C5CCCN5)ccn34)ccc2C(F)(F)F)n1` (single isomer, unassigned) [Compound 114, (R or S)-3-(1-methyl-1H-pyrazol-3-yl)-N-(2-phenyl-7-pyrrolidin-2-ylimidazo[1,2-a]pyridin-3-yl)-4-(trifluoromethyl) benzamide], the IC50 worked out at 15 nM.

For the molecule `CNCCc1ccn2c(NC(=O)c3ccc(C(F)(F)F)c(-c4ccn(C)n4)c3)c(-c3ccccc3)nc2c1` [Compound 109, N-{7-[2-(methylamino)ethyl]-2-phenylimidazo[1,2-a]pyridin-3-yl}-3-(1-methyl-1H-pyrazol-3-yl)-4-(trifluoromethyl) benzamide], the half-maximal inhibitory concentration (IC50) was determined as 169 nM.

Molecule `N#Cc1ccc2[nH]c(-c3ccccc3)c(NC(=O)c3cc(-c4ncccn4)c(C(F)(F)F)cc3F)c2c1` [Compound 86, N-(5-cyano-2-phenyl-1H-indol-3-yl)-2-fluoro-5-pyrimidin-2-yl-4-(trifluoromethyl) benzamide] registered an IC50 of 2.6 nM.

For the molecule `CC(=O)NCCc1ccn2c(NC(=O)c3ccc(C(F)(F)F)c(-c4ccn(C)n4)c3)c(-c3ccccc3)nc2c1` [Compound 101, N-{7-[2-(acetylamino)ethyl]-2-phenylimidazo[1,2-a]pyridin-3-yl}-3-(1-methyl-1H-pyrazol-3-yl)-4-(trifluoromethyl) benzamide], inhibition was half-maximal at 10 nM (IC50).

As for `Cn1ccc(-c2cc(C(=O)Nc3c(-c4ccccc4)nn4ccc(C(C)(C)O)cc34)ccc2C(F)(F)F)n1` [Compound 96, N-[5-(1-hydroxy-1-methylethyl)-2-phenylpyrazolo[1,5-a]pyridin-3-yl]-3-(1-methyl-1H-pyrazol-3-yl)-4-(trifluoromethyl) benzamide], the IC50 stood at 6.7 nM.

Turning to `CC(O)c1ccn2nc(-c3ccccc3)c(NC(=O)c3cc(-c4ccn(C)n4)c(C(F)(F)F)cc3F)c2c1` (single isomer, unassigned) [Compound 106, (R or S)-2-fluoro-N-[5-(1-hydroxyethyl)-2-phenylpyrazolo[1,5-a]pyridin-3-yl]-5-(1-methyl-1H-pyrazol-3-yl)-4-(trifluoromethyl) benzamide], the IC50 turned out to be 1.7 nM.

`C[C@@H](O)c1ccn2c(NC(=O)c3ccc(C(F)(F)F)c(-c4ccn(C)n4)c3)c(-c3ccccc3)nc2c1` (single isomer, unassigned) [Compound 42]: it took 0.79 nM to reach half-maximal inhibition (IC50).

`O=C(Nc1c(-c2ccno2)nc2ccccn12)c1ccc(C(F)(F)F)cc1F` [Compound 10, 2-fluoro-N-(2-isoxazol-5-ylimidazo[1,2-a]pyridin-3-yl)-4-(trifluoromethyl) benzamide]: the 50% inhibitory concentration (IC50) worked out at 1920 nM.

In turn, `Cn1ccc(-c2cc(C(=O)Nc3c(-c4ccccc4)nc4ccccn34)c(Cl)cc2C(F)(F)F)n1` [Compound 20, 2-chloro-5-(1-methyl-1H-pyrazol-3-yl)-N-(2-phenylimidazo[1,2-a]pyridin-3-yl)-4-(trifluoromethyl) benzamide] came in with an IC50 of 0.73 nM.

As to `CC(O)c1ccc2[nH]c(-c3ccccc3)c(NC(=O)c3cc(-c4ccn(C)n4)c(C(F)(F)F)cc3F)c2c1` (single isomer, unassigned) [Compound 113, (R or S)-2-fluoro-N-[5-(1-hydroxyethyl)-2-phenyl-1H-indol-3-yl]-5-(1-methyl-1H-pyrazol-3-yl)-4-(trifluoromethyl) benzamide], the midpoint of inhibition, the IC50, lay at 1.7 nM.

With `CC(O)c1ccn2c(NC(=O)c3ccc(C(F)(F)F)c(-c4ccn(C(F)F)n4)c3)c(-c3ccccc3)nc2c1` (single isomer, unassigned) [Compound 78, (R or S)-3-[1-(difluoromethyl)-1H-pyrazol-3-yl]-N-[7-(1-hydroxyethyl)-2-phenylimidazo[1,2-a]pyridin-3-yl]-4-(trifluoromethyl) benzamide], the IC50 worked out at 4.8 nM.

Molecule `CC(O)c1ccc2[nH]c(-c3ccccc3)c(NC(=O)c3cc(-c4ncccn4)c(C(F)(F)F)cc3F)c2c1` (single isomer, unassigned) [Compound 94, (R or S)-2-fluoro-N-[5-(1-hydroxyethyl)-2-phenyl-1H-indol-3-yl]-5-pyrimidin-2-yl-4-(trifluoromethyl) benzamide] showed an IC50 of 6.5 nM.

In the case of `Cc1nc(-c2nc3ccccn3c2NC(=O)c2ccc(C(F)(F)F)c(-c3ccn(C)n3)c2)cs1` [Compound 19, 3-(1-methyl-1H-pyrazol-3-yl)-N-[2-(2-methyl-1,3-thiazol-4-yl)imidazo[1,2-a]pyridin-3-yl]-4-(trifluoromethyl) benzamide], the IC50 is 14 nM.

For `Cn1ccc(-c2cc(C(=O)Nc3c(-c4ccccc4)nc4cc(C(O)C(F)(F)F)ccn34)ccc2C(F)(F)F)n1` (single isomer, unassigned) [Compound 63, (R or S)-3-(1-methyl-1H-pyrazol-3-yl)-N-[2-phenyl-7-(2,2,2-trifluoro-1-hydroxyethyl)imidazo[1,2-a]pyridin-3-yl]-4-(trifluoromethyl) benzamide], inhibition was half-maximal at 1.6 nM (IC50).

For the molecule `O=C(Nc1c(-c2ccccc2)nc2sccn12)c1ccc(C(F)(F)F)cc1F` [Compound 2, 2-fluoro-N-(6-phenylimidazo[2,1-b][1,3]thiazol-5-yl)-4-(trifluoromethyl) benzamide], the half-maximal inhibitory concentration (IC50) is 139 nM.

As to `Cn1ccc(-c2cc(C(=O)Nc3c(-c4ccccc4)nc4c(CO)cccn34)ccc2C(F)(F)F)n1` [Compound 38, N-[8-(hydroxymethyl)-2-phenylimidazo[1,2-a]pyridin-3-yl]-3-(1-methyl-1H-pyrazol-3-yl)-4-(trifluoromethyl) benzamide], the IC50 stood at 2.4 nM.

The molecule `Cn1ccc(-c2cc(C(=O)Nc3c(-c4ccccc4)nc4cc(C(=O)N5CCC5)ccn34)ccc2C(F)(F)F)n1` [Compound 29, N-[7-(azetidin-1-ylcarbonyl)-2-phenylimidazo[1,2-a]pyridin-3-yl]-3-(1-methyl-1H-pyrazol-3-yl)-4-(trifluoromethyl) benzamide] had a 50% inhibitory concentration (IC50) of 1.4 nM.

In turn, `O=C(Nc1c(-c2ccccc2)[nH]c2ccccc12)c1cc(-c2ncccn2)c(C(F)(F)F)cc1F` [Compound 76, 2-fluoro-N-(2-phenyl-1H-indol-3-yl)-5-pyrimidin-2-yl-4-(trifluoromethyl) benzamide] yielded an IC50 of 8.2 nM.

Regarding `Cn1ccc(-c2cc(C(=O)Nc3c(-c4ccccn4)nc4ccccn34)ccc2C(F)(F)F)n1` [Compound 5, 3-(1-methyl-1H-pyrazol-3-yl)-N-(2-pyridin-2-ylimidazo[1,2-a]pyridin-3-yl)-4-(trifluoromethyl) benzamide], the IC50 is 12 nM.

For `Cn1ccc(-c2cc(C(=O)Nc3c(-c4ccccc4)nc4cccnn34)ccc2C(F)(F)F)n1` [Compound 6, 3-(1-methyl-1H-pyrazol-3-yl)-N-(2-phenylimidazo[1,2-b]pyridazin-3-yl)-4-(trifluoromethyl) benzamide], the midpoint of inhibition, the IC50, lay at 3.9 nM.

Turning to `Cn1ccc(-c2cc(C(=O)Nc3c(-c4ccccc4)[nH]c4ccc(C#N)cc34)c(F)cc2C(F)(F)F)n1` [Compound 108, N-(5-cyano-2-phenyl-1H-indol-3-yl)-2-fluoro-5-(1-methyl-1H-pyrazol-3-yl)-4-(trifluoromethyl) benzamide], it took 1 nM to reach half-maximal inhibition (IC50).

On to `COC1CN(Cc2ccn3c(NC(=O)c4ccc(C(F)(F)F)c(-c5ccn(C)n5)c4)c(-c4ccccc4)nc3c2)C1` [Compound 45, N-{7-[(3-methoxyazetidin-1-yl)methyl]-2-phenylimidazo[1,2-a]pyridin-3-yl}-3-(1-methyl-1H-pyrazol-3-yl)-4-(trifluoromethyl) benzamide], for which the IC50 was determined as 5 nM.

For the molecule `COC(=O)NCCc1ccn2c(NC(=O)c3ccc(C(F)(F)F)c(-c4ccn(C)n4)c3)c(-c3ccccc3)nc2c1` [Compound 104, methyl{2-[3-({[3-(1-methyl-1H-pyrazol-3-yl)-4-(trifluoromethyl)phenyl]carbonyl}amino)-2-phenylimidazo[1,2-a]pyridin-7-yl]ethyl}carbamate], inhibition was half-maximal at 1.7 nM (IC50).

In the case of `CC(=O)NCc1ccn2c(NC(=O)c3ccc(C(F)(F)F)c(-c4ccn(C)n4)c3)c(-c3ccccc3)nc2c1` [Compound 79, N-{7-[(acetylamino)methyl]-2-phenylimidazo[1,2-a]pyridin-3-yl}-3-(1-methyl-1H-pyrazol-3-yl)-4-(trifluoromethyl) benzamide], the midpoint of inhibition, the IC50, lay at 8.2 nM.

Values taken from US9862716B2, “TRKA kinase inhibitors, compositions and methods thereof” (Merck Sharp & Dohme Corp., priority 2014, dated 2018).
